In US9216163B2, “Method of inhibiting angiogenesis” (KYORIN PHARMACEUTICAL CO., LTD, priority 2013, dated 2015):

Tests used:
HUVEC [1] = experiment: VEGF-induced cell growth of HUVEC (Cell Counting Kit-8); format: cell-based, human; conditions: VEGF 30 ng/mL
Method: An effect of L-carbocisteine against cell growth promotion by VEGF was evaluated in vitro using HUVEC. HUVEC were inoculated at 2,500 cells/well in a 96-well microplate, and cultured for 24 hours. Subsequently, the HUVEC were cultured in a medium without VEGF and bFGF overnight under a starvation condition. The HUVEC were pretreated with L-carbocisteine (10, 50, 100, and 200 μM) for 15 minutes, and then stimulated by VEGF (30 ng/mL). The number of living cells after 48 hours was determined by Cell Counting Kit-8 (manufactured by DOJINDO LABORATORIES) (n=6). 2) Results

HUVEC [2] = experiment: VEGF-induced cell migration of HUVEC; format: cell-based, human; conditions: 100 μM pretreatment 15 minutes, VEGF 30 ng/mL, after 12 hours
Method: An effect of L-carbocisteine against cell migration promoted by VEGF was evaluated in vitro using HUVEC. HUVEC were inoculated in a plate, and cultured until confluent. Subsequently, the HUVEC were cultured in a medium without VEGF and bFGF overnight under starvation condition. The HUVEC were pretreated with L-carbocisteine (100 μM) for 15 minutes. The cells (HUVEC) on the plate were peeled at certain intervals. The cells remaining on the plate were stimulated by VEGF (30 ng/mL). After 12 hours, the distance of cell migration was measured (n=4).

HUVEC [3] = experiment: VEGF-induced tube formation of HUVEC in collagen; format: cell-based, human; conditions: 100 μM pretreatment 15 minutes, VEGF 30 ng/mL, after 24 hours
Method: An effect of L-carbocisteine against tube formation promoted by VEGF was evaluated in vitro using HUVEC. A collagen Type 1-C (available from Nitta Gelatin Inc.) lower layer was formed on a 12-well plate, HUVEC were inoculated on the lower layer, and a collagen upper layer was then formed. The HUVEC were pretreated with L-carbocisteine (100 μM) for 15 minutes, and stimulated by VEGF (30 ng/mL). The overall length of the lumen after 24 hours was measured (n=6).

[4] = test system: VEGF-induced angiogenesis formed in Matrigel; experiment: VEGF-induced angiogenesis in Matrigel, in vivo mouse model (Evans blue); conditions: male C57BL/6J mouse, 5 μg/g B.W. intraperitoneal twice daily for 14 days
Method: An effect of L-carbocisteine against angiogenesis promoted by VEGF was evaluated in an in vivo mouse model. A male C57BL/6J mouse (6 weeks) was anesthetized with pentobarbital. Subsequently, 500 μL of BD™ matrix containing 30 ng/mL VEGF was subcutaneously injected into the side of the mouse using a 27-G needle. L-carbocisteine (5 μg per g of body weight of the mouse) or physiologic saline (the same volume) was intraperitoneally administered twice a day, morning and evening, for 14 days. After completion of the administration for 14 days, Evans blue was administered to the mouse via the orbital vein plexus. The mouse was sufficiently perfused with EDTA, and anesthetized with pentobarbital. The matrigel was taken out from the body of the mouse. The weight of taken matrigel was measured, and the matrigel was immersed in a formamide solution and allowed to stand at 37° C. for 48 hours. Following elution of Evans blue in the formamide solution, the weight of eluted Evans blue per unit weight of the matrigel was measured using an absorbance of 620 nm (n=8).

Erk1/2 = experiment: VEGF-induced phosphorylation of Erk1/2 in HUVEC (Western blot); format: cell-based, human; conditions: 100 μM pretreatment 15 minutes, VEGF 30 ng/mL for 5 or 15 minutes
Method: (§1) An effect of L-carbocisteine against phosphorylation of Akt, Erk1/2, c-Jun N-terminal kinase (JNK), and p38 MAP kinase accelerated by VEGF stimulation was evaluated using HUVEC. HUVEC were inoculated, and cultured in an EBM-2 medium containing 0.1% FBS overnight under starvation condition. The HUVEC were pretreated with L-carbocisteine (100 μM) for 15 minutes, and stimulated by VEGF (30 ng/mL) for 5 or 15 minutes. Phosphorylation accelerated by VEGF stimulation was evaluated using phosphor-specific antibodies against various kinases by a Western blot method. The level of kinase protein expression was investigated using each antibody after detection of phosphorylation.

[5] = test system: c-Jun N-terminal kinase (JNK); experiment: VEGF-induced phosphorylation of JNK in HUVEC (Western blot); format: cell-based, human; conditions: 100 μM pretreatment 15 minutes, VEGF 30 ng/mL for 5 or 15 minutes
Method: as §1

p38 MAP kinase = experiment: VEGF-induced phosphorylation of p38 MAP kinase in HUVEC (Western blot); format: cell-based, human; conditions: 100 μM pretreatment 15 minutes, VEGF 30 ng/mL for 5 or 15 minutes
Method: as §1

Akt = experiment: VEGF-induced phosphorylation of Akt in HUVEC (Western blot); format: cell-based, human; conditions: 100 μM pretreatment 15 minutes, VEGF 30 ng/mL for 5 or 15 minutes
Method: as §1

N[C@@H](CSCC(=O)O)C(=O)O [L-carbocisteine, S-(carboxymethyl)-L-cysteine]
growth suppressive effect, concentration dependence (HUVEC [1]; 10, 50, 100 and 200 μM, 48 hours): concentration-dependent | endothelial cell growth promoted by VEGF (HUVEC [1]; pretreatment with 100 μM or more for 15 minutes, living cells after 48 hours): significantly suppressed | migration promoted by VEGF (distance of cell migration) (HUVEC [2]): significantly suppressed | tube formation promoted by VEGF (overall length of the lumen) (HUVEC [3]): significantly suppressed | vascular density in the matrigel [4]: markedly decreased | accelerated phosphorylation of Erk1/2 (Erk1/2): specifically suppressed | accelerated phosphorylation of JNK [5]: only accelerated phosphorylation of Erk1/2 was specifically suppressed | accelerated phosphorylation of p38 MAP kinase (p38 MAP kinase): only accelerated phosphorylation of Erk1/2 was specifically suppressed | accelerated phosphorylation of Akt (Akt): only accelerated phosphorylation of Erk1/2 was specifically suppressed
